We go through 14 compounds from patent US6436445B1, “Antimicrobial and antiviral compositions containing an oxidizing species” (Ecolab Inc., priority 1999, dated 2002).

The subject of one experiment is Feline parvovirus. The note with it: cited from earlier work.
Another experiment concerns E. coli ATCC 11229. In words: Log reduction of bacteria by liquid compositions, 30 second contact (E. coli). Type of experiment: cell-based. As to conditions: for Log Reduction E. coli / Log Reduction: 30 second contact time; for Log Reduction E. coli: vs. untreated control; for Log Reduction: E. coli. An excerpt: (§1) A variety of nitrogen sources are utilized. Results recorded include the color of the solution and the microbial log reduction of gram-positive and gram-negative bacteria (E. coli and S. aureus, respectively). As shown earlier there is a direct correlation between color of the solution and microbial efficacy. […] Looking at Table 6, there is an obvious direct correlation between color and antimicrobial activity. Table 7 compares formulas of the present invention with prior art examples for the reduction of gram-positive and gram-negative bacteria. […] Results recorded include the pH of the solution, the color of the solution and the log reduction in microbe.

The test system of a further experiment is S. aureus. In words: Log reduction of bacteria by liquid compositions, 30 second contact (S. aureus). The format is cell-based. The note with it: for Log Reduction S. aureus: vs. untreated control.
Source text: as §1

The subject of experiment [1] is Penicillium expansum (ATCC 7861). The experiment is described as follows: Mold spore suspension test, exposure, neutralization, plating on Sabouraud Dextrose agar. Type of experiment: cell-based. As to conditions: P. expansum, 15 minute contact time.
Experiment [2] concerns Total bacterial flora on prerigor beef tissue surfaces. The experiment is described as follows: Microbial reduction on prerigor beef tissue surfaces, 30 second treatment. The format is cell-based.
The mark [3] stands for this setting: published results against Feline parvovirus.
The mark [4] stands for this setting: Actives Conc. 300 ppm, 30 second exposure.

Where two headings read alike, the source gives them in different places. Marks after values point to notes of the source that are not given here.

On to `Oc1ccccc1-c1ccccc1` [o-phenylphenol G, o-phenylphenol], for which the “Minimum Concentration (for 10-minute inactivation)” value (“Minimum Concentration” below) with Feline parvovirus (setting [3]) is reported as 100,000 ppm.
On to `[Na+].[O-]Cl` [NaOCl], for which the “Minimum Concentration” value in the experiment on Feline parvovirus (setting [3]) was 2,000 ppm.
In the case of `C[N+](C)(C)CCO.[Cl-]` [choline chloride], the “Log Reduction” value in the experiment with Z. bailii (N-source:H2O2:KI 300:0:0 ppm, pH 7, 30 second contact time) came out at 0.0 log; in the experiment with E. coli ATCC 11229 (N-source:H2O2:KI 300:0:0 ppm, pH 7) it was 0.0 log. Further, the “Log Reduction E. coli” value in the experiment with E. coli ATCC 11229 was found to be 0 log. Also, in the experiment with S. aureus (30 second contact time), the “Log Reduction S. aureus” value amounted to 0 log.
With `OO` [Formula H2O2, hydrogen peroxide], the “Log Reduction” value with Z. bailii (N-source:H2O2:KI 0:532:0 ppm, pH 3, 30 second contact time) is on record as 0.1 log; with Z. bailii (N-source:H2O2:KI 0:532:0 ppm, pH 5, 30 second contact time), 0.1 log; with Z. bailii (N-source:H2O2:KI 0:532:0 ppm, pH 7, 30 second contact time), 0.1 log; with E. coli ATCC 11229 (N-source:H2O2:KI 0:300:0 ppm, pH 5) it was 0.2 log; with S. aureus (S. aureus, N-source:H2O2:KI 0:300:0 ppm, pH 5, 30 second contact time), 0.4 log; in experiment [1] (N-source:H2O2:KI 0:532:0 ppm, pH 5), 0.0* log. Moreover, the “Log Reduction E. coli” value with E. coli ATCC 11229 was 0.2 log. Moreover, in the experiment with E. coli ATCC 11229 (setting [4]), the “Log Reduction (CFU/ml) E. coli” value is 0.2 log CFU/ml. Also, the “Log Reduction S. aureus” value in the experiment with S. aureus (30 second contact time) amounted to 0 log. For the same compound, the “Log Reduction (CFU/ml) S. aureus” value in the experiment on S. aureus (setting [4]) turned out to be 0.4 log CFU/ml.
Regarding `CCCCCCCC[N+](C)(C)[O-]` [C8 amine oxide, Octyl dimethyl aznine oxide], in the experiment on E. coli ATCC 11229, the “Log Reduction E. coli” value was found to be 0 log. Also, in the experiment with S. aureus (30 second contact time), the “Log Reduction S. aureus” value turned out to be 0 log.
Take cocodimethyl betaine: the “Log Reduction E. coli” value in the experiment with E. coli ATCC 11229 stood at 0 log. Moreover, in the experiment on S. aureus (30 second contact time), the “Log Reduction S. aureus” value stood at 0 log.
On to `CC(O)C(=O)O` (centres unmarked) [lactic acid], for which the “Log Reduction” value in experiment [2] (Active Antimicrobial 5000 ppm, treated 30 seconds, drained 10 minutes, relative to untreated starting meat carcass) is 0.8 log.
Turning to `CCCCCCCCCCCCCCCC[n+]1ccccc1` [cetyl pyridinium chloride], the “Log Reduction” value in experiment [2] is recorded as 0.5 log.
Consider cocoa dimethyl betaine, for which the “Log Reduction E. coli” value in the experiment on E. coli ATCC 11229 came out at 0 log. Besides, the “Log Reduction S. aureus” value in the experiment on S. aureus (30 second contact time) stood at 0 log.
For `CC(C)O` [IPA], in the experiment with Feline parvovirus (setting [3]), the “Minimum Concentration” value is 500,000 ppm.
On to `[I-].[K+]` [KI, potassium iodide], for which, in the experiment with E. coli ATCC 11229, the “Log Reduction E. coli” value is recorded as 0 log. Also, the “Log Reduction S. aureus” value with S. aureus (30 second contact time) stood at 0 log. The “Log Reduction” value in experiment [1] (N-source:H2O2:KI 0:0:500 ppm, pH 5) was 0.0* log.
Regarding `CCO` [Ethanol], the “Minimum Concentration” value in the experiment on Feline parvovirus (setting [3]) is recorded as 500,000 ppm.
Turning to `O=CCCCC=O` [Glutaraldehyde], in the experiment on Feline parvovirus (published, (2-log)), the “Minimum Concentration” value is 10,000.
For `CCCCCCCCCC[N+](C)(C)CCCCCCCCCC.[Cl-]` [didecyl dimethyl ammonium chloride], the “Log Reduction” value in the experiment on Z. bailii (N-source:H2O2:KI 20:0:0 ppm, pH 3, 30 second contact time) is 0.1 log; in experiment [1] (N-source:H2O2:KI 100:0:0 ppm, pH 7) it was 1.0* log.
